From publication PMC8151276, “An Integrated Approach toward NanoBRET Tracers for Analysis of GPCR Ligand Engagement” (Molecules, 2021)

Experiments:
HiBiT-GPCRs = assay: NanoBRET saturation ligand-engagement assay in HEK293; type: binding, human
Text: Metabotropic GRM1 glutamate receptor, metabotropic 1 glutamate GRM2 glutamate receptor, metabotropic 2
GRM3 glutamate receptor, metabotropic 3
GRM4 glutamate receptor, metabotropic 4
GRM5 glutamate receptor, metabotropic 5
GRM7 glutamate receptor, metabotropic 7
GRM8 glutamate receptor, metabotropic 8
Glucagon ADCYAP1R1 adenylate cyclase activating polypeptide 1
(pituitary) receptor type I
Lutropin- LHCGR luteinizing hormone/choriogonadotropin choriogonadotropin receptor
Cysteinyl leukotriene CYSLTR1 cysteinyl leukotriene receptor 1
CYSLTR2 cysteinyl leukotriene receptor 2
Cell culture and transfection
HEK293 cells were obtained from American Type Culture Collection (ATCC) and cultured at 37 °C/5% CO2 in Dulbecco's Modified Eagle Medium (DMEM) (Gibco) supplemented with 10% fetal bovine serum (Seradigm) and 100 units/mL of penicillin-streptomycin (Gibco). Transfections were carried out using Viafect (Promega) at a 1:3 DNA/transfection reagent ratio. Generally, DNA encoding HiBiT-GPCR fusion was diluted 1:100 in promoterless carrier DNA. […]
in the presence of 30 μM competing unmodified compound for 90 min at room temperature. […] Filtered luminescence was then measured using GloMax Discover microplate reader (Promega) equipped with a 450-nm (8-nm band pass) filter (donor) and a 600-nm long pass filter (acceptor). BRET was calculated by dividing the acceptor emission by the donor emission. […]

[1] = test system: 184 HiBiT-GPCRs from 51 families; assay: NanoBRET screen, binding profile across the HiBiT-GPCR library; design: species or system human; details: screen at 1 μM and 0.1 μM tracer
Protocol: Each tracer candidate was screened across the entire library of HiBiT-GPCR constructs using NanoBRET as the detection modality. As depicted in Figure 4A, the specificity of interactions was evaluated through decrease in BRET due to competitive displacement of a bound tracer by excess parental compound. Each tracer was analyzed for binding to each HiBiT-GPCR fusion in the absence and in the presence of competing parental compound. Briefly, HEK293 cells were transfected with HiBiT-GPCR constructs diluted into promoterless DNA to reduce expression and maximize translocation to the cell surface. Each tracer candidate was then screened at concentrations of 1 μM and 0.1 μM across cells expressing these fusions. Cells were treated for 1.5 h with tracer either alone or in the presence of 20 μM competing parental compound (i.e., control). BRET was measured upon addition of purified LgBiT and subsequent complementation with HiBiT genetically fused to a GPCR. The specificity of interactions was assessed through a decrease in BRET signal due to competitive displacement of the bound tracer. To further gauge the robustness of these interactions, the fold response over the control (i.e., BRETtracer/BRETcontrol) was calculated. We chose a 1.5-fold response, which translates to ≥7-fold signal over noise as the minimal threshold required to score an interaction as positive. […]. […]

EC50 (HiBiT-GPCRs; range over 17 of the 19 GPCRs, background corrected with competing Clozapine (30 μM), read-out: EC50 values (concentration-dependent tracer binding)) [nM] | Compound | Concentration-dependent binding (HiBiT-GPCRs; ADRA2A and HTR1D, competing Clozapine (30 μM)) | Number of GPCRs with specific interactions (≥[…] response) [1]
1 to 600 | O=C(CCOCCOCCOCCOCCNC(=O)CCc1ccc2n1[B-](F)(F)[N+]1=C(c3ccc[nH]3)C=CC1=C2)NCCCN1CCN(C2=Nc3cc(Cl)ccc3Nc3ccccc32)CC1 [Clozapine-a-2-NB590] | specific but suffered from high background | 
 | CN(CCC=C1c2ccccc2CCc2ccccc21)C(=O)CCOCCOCCOCCOCCNC(=O)CCc1ccc2n1[B-](F)(F)[N+]1=C(c3ccc[nH]3)C=CC1=C2 [Amitriptyline-e-2-NB590] |  | no specific interactions
